Experimental data from ChEMBL document CHEMBL1148125, “Total synthesis and bioactivity of some naturally occurring pterulones” (2002).

Tests used:
Type in all cases: functional
Rhodotorula glutinis [1] = test: Antimicrobial activity against Rhodotorula glutinis ATCC 201718 assessed as relative growth at 50 ug/mL after 24 to 48 hrs relative to control
Saccharomyces cerevisiae [2] = test: Antimicrobial activity against Saccharomyces cerevisiae CBS 1394 assessed as relative growth at 100 ug/mL after 24 to 48 hrs relative to control
Saccharomyces cerevisiae [3] = test: Antimicrobial activity against Saccharomyces cerevisiae CBS 1394 assessed as relative growth at 50 ug/mL after 24 to 48 hrs relative to control
Rhodotorula glutinis [4] = test: Antimicrobial activity against Rhodotorula glutinis ATCC 201718 assessed as relative growth at 100 ug/mL after 24 to 48 hrs relative to control

Row | Compound | Activity (Rhodotorula glutinis [1]) [%] | Activity (Saccharomyces cerevisiae [2]) [%] | Activity (Saccharomyces cerevisiae [3]) [%] | Activity (Rhodotorula glutinis [4]) [%]
1 | CC(=O)c1ccc2c(c1)C=C/C(=C/Cl)CO2 | 58 | 84 | 91 | 40
2 | O=Cc1ccc2c(c1)C=C/C(=C/Cl)CO2 | 96 | 87 | 91 | 65
3 | OCc1ccc2c(c1)C=C/C(=C/Cl)CO2 | 5.5 | 1 | 89 | <1
